Results as given in PMC12812009, “Optimization of 4‐Amino‐2‐Pyridone Inhibitors of Proprotein Convertase Subtilisin/Kexin Type 9: Integrating Structure–Activity and Structure–Metabolism Relationships” (Chemmedchem, 2025).
Like-named read-outs stand apart in the source and are kept apart here.

Tests used:
[1] = MTT cell viability assay in HepG2 cell cultures; type: cell-based, human; details: human, HepG2 cells, MTT
Protocol: The approach we set‐up to test the new PCSK9i was based on functional assay, which evaluated at the same time compounds cytotoxicity, and their effect on the secreted PCSK9 on the same cell line. First, cell viability was evaluated in HepG2 cell cultures using the MTT assay (CC50 values are reported in Table 1 and Figure 5 ) after 24 h of incubation in starving conditions (0.4% fetal bovine serum (FBS)). The low FBS concentration, and thus low extracellular lipoproteins, stimulates the sterol responsive element binding protein (SREBP) pathway, inducing the expression of LDLR, PCSK9, HMG‐CoA reductase,^[ [28] ^] thus increasing the uptake of exogenous cholesterol and enhancing the synthesis of endogenous cholesterol. This first step allowed us to calculate the CC50 and identify the noncytotoxic concentrations (viability higher than 90%; Table 1), then tested for PCSK9 inhibitory activity.
Cell viability was assessed using the MTT assay. Cells were seeded in 96‐well plates (2.5 × 10^4 cells/well) in MEM supplemented with 10% v/v FBS and incubated for 24 h. The cells were then treated with the synthesized compounds dissolved in DMSO at increasing concentrations (from 0.5 to 50 µM) in MEM supplemented with 0.4% v/v FBS for 24 h. Simvastatin [20 and 40 µM] and BBR [10 µM] (both from Merck, St. Louis, Missouri, USA) were used as internal controls as PCSK9 inducer and inhibitor, respectively.^[ [21] ^, [34] ^, [35] ^] The cells were then incubated for 2 h with a solution of MTT [1 mg mL^–1] in MEM supplemented with 0.4% v/v FBS, away from light sources. The supernatant was then collected and 200 µL of DMSO was added to each well to solubilize the newly formed formazan. Finally, an aliquot of 100 µL was taken to measure the absorbance at a wavelength of 570 nm using an absorbance microplate reader (Spark Tecan, Switzerland). Every experimental condition was run in duplicate and the average cell viability and standard deviation was calculated. Cell viability was expressed as the percentage of treated cells compared to untreated (basal) cells. CC50 values for each compound were calculated by interpolating the percentage of cell viability through nonlinear regression analysis of the log (inhibition) versus response using GraphPad Prism software version 8.0 (GraphPad Software Inc., La Jolla, CA).

secreted PCSK9 = test: PCSK9 secretion in culture medium, ELISA on HepG2 supernatants; type: cell-based, human; details: for decrease of secreted PCSK9 vs. basal: given as decrease
Protocol: Next, the levels of secreted PCSK9 were quantified by ELISA assay (Figure 5) only on supernatants collected from cells treated with noncytotoxic concentrations of each compound, as reported in Table 1. Simvastatin (Simva) at 20 and 40 μM and berberine (BBR) at 10 μM were included as controls. As described in the literature, simvastatin induces PCSK9 expression as a compensatory mechanism in response to its cholesterol‐lowering effects, being a pharmacological competitor for HMG‐CoA reductase, the rate‐limiting enzyme of the cholesterol biosynthetic pathway.^[ [29] ^] In contrast, BBR, a natural compound, reduces the expression of PCSK9 levels through transcriptional inhibition, thus increasing the LDLR availability on plasma membrane.^[ [30] ^] As additional and distinct mechanism to the latter, BBR is also able to stabilize the transcript of LDLR, thus increasing its half‐life.^[ [31] ^] As expected, cells stimulated with simvastatin released more PCSK9 into the culture medium compared to unstimulated cells, with a statistically significant concentration‐dependent effect (+73% at 20 μM, p < 0.01; +200% at 40 μM, p < 0.0001), while BBR at 10 μM decreased PCSK9 levels in the medium more than 50% (p < 0.0001 vs. basal) (Figure 5).^[ [32] ^] The amount of PCSK9 secreted into the culture media was measured with an appropriate ELISA kit (R&D System, DY3888 and DY008B2) on the supernatants collected during the MTT assay. Every experimental condition was run in duplicate and the average PCSK9 secretion and standard deviation was calculated. A 4PL regression analysis was used to interpolate unknowns with the standard curve using GraphPad Prism v10.2, according to manufacturers’ instructions. The data were normalized onto the corresponding cell viability, and IC50 was then calculated using GraphPad Prism v10.2.

[2] = In vitro metabolic stability with mouse liver microsomes; type: in vitro ADME; details: 60 min; for metabolic stability (in words): MLM + NADPH-generating system; for metabolic stability, percentage of intact compound recovered relative to control: MLM 1 mg/ml + NADPH-generating system, 10 µM, HPLC
Protocol: All newly synthesized LSF derivatives of 5c were biologically evaluated to determine whether the introduced modifications influenced both metabolic stability and anti‐PCSK9 activity. Microsomal stability assays were conducted to assess the impact of LSF modifications on improving the stability of 5c. In these assays, LSF derivatives were incubated with mouse liver microsomes (MLM) and an NADPH‐generating system for 60 min, followed by HPLC analysis. Control samples included compounds and liver microsomes without the NADPH system, allowing for the assessment of nonspecific binding to microsomes. […] Acylated derivatives 12, 13, and 14 achieved stability levels exceeding 95%, as did the bicyclic derivative 7, which exemplifies a dual‐site functionalization.
MLM (pooled male) were obtained from Xenotech, LLC (Cambridge, Kansas City, USA). Glucose‐6‐phosphate (G6P), oxidized nicotinamide‐adenine‐dinucleotide phosphate (NADP^+), magnesium chloride (MgCl2), and glucose‐6‐phosphate‐dehydrogenase (G6PDH) were supplied by Sigma‐Aldrich (Milan, Italy). Metabolic stability assays were modified from Ferlenghi et al.^[ [33] ^] Briefly, samples were prepared in 100 mM phosphate buffered saline (PBS), pH 7.4, containing 1 mg ml^–1 MLM and a NADPH‐generating system (5 mM MgCl2, 10 mM glucose‐6‐phosphate, 2 mM NADP^+, 1.5 U ml^–1 of glucose‐6‐phosphate dehydrogenase). After incubation (37 °C, 5 min stirring), compounds stock solutions in DMSO were added to a final concentration of 10 µM. The final DMSO percentage in samples was kept at 0.5%. After 60 min, single aliquots of reaction mixture were withdrawn, added of two volumes of acetonitrile, centrifuged (10,000 g, 10 min) and the supernatant was analyzed by HPLC. The unspecific binding to MLM was evaluated by means of control samples in which the compounds were incubated in the absence of a NADPH generating system. The apparatus used for HPLC analysis was a Shimadzu instrument, with a reverse‐phase Nova‐Pak column (Waters) (C18 4 μm 3.9 × 150 mm, Waters). The mobile phase, pumped at a flow rate of 1.2 ml min^–1, consisted of water and acetonitrile in either a 50:50 (v/v) ratio (compounds 5c, 6a, 6b, 6c, 7, 8, 12, 13, 14, 17b) or a 40:60 (v/v) ratio (compounds 11 and 15) or a 30:70 (v/v) ratio (for compounds 17a, 18a, 18b). For compounds 9 and 10, a phosphate buffer (5.98 g L^–1 Na2HPO4, 0.19 g L^–1 KH2PO4, adjusted to pH 7.4 with 85% H3PO4 and supplemented with 1.4 mL L^–1 triethylamine; final pH: 8) and acetonitrile (50:50, v/v) were pumped at a flow rate of 2 mL min^–1. In all cases, column temperature was 35 °C, injection volume was 50 µl, and absorbance was monitored at 254 nm. Serial dilutions for the calibration curves were prepared in the interval 0.5–20 µM in either PBS:CH3CN or H2O:CH3CN mixture (50:50, v/v) for compounds 5c, 6a, 6b, 8, 9, 10, 11, 12, 13, 14, 15, 17a, 17b, 18a, 18b, and in acetonitrile for compounds 6c and 7.

[3] = 24 h incubation, HepG2, 0.4% FBS, 0.5-50.0 μM, read-out: CC50 (CI 95%)
[4] = Homo sapiens, HepG2, 24 h, read-out: secreted PCSK9 change vs. basal
[5] = Homo sapiens, HepG2, Table S2, ELISA, non-cytotoxic concentrations, read-out: IC50 ± SD on PCSK9 secreted by HepG2
[6] = HepG2, 24 h, non-cytotoxic concentrations
[7] = printed in Figures 5 and 8, HepG2, 24 h, read-out: CC50

Q: Which CC50 at 24 h [1, 3] does the source give for `Cc1cc(OCc2ccc(C(F)(F)F)cc2)cc(=O)n1Cc1ccc(C(F)(F)F)cc1` [Compound 17a, 6‐Methyl‐1‐(4‐(Trifluoromethyl)Benzyl)‐4‐((4‐(Trifluoromethyl)Benzyl)Oxy)pyridin‐2(1H)‐One] here?
A: 22 µM

Q: What about the inhibition at 5 µM (secreted PCSK9; [4]) of the same molecule?
A: 58%

Q: And the “metabolic stability (in words)” value [2]?
A: did not show improved metabolic stability compared to 5c

Q: Which results are given for `Cc1cc(NCc2ccc(C(F)(F)F)cc2)c(Cl)c(=O)n1Cc1ccc(C(F)(F)F)cc1` [Compound 6a, 3‐Chloro‐6‐Methyl‐1‐(4‐(Trifluoromethyl)Benzyl)‐4‐((4‐(Trifluoromethyl)Benzyl)Amino)pyridin‐2(1H)‐One]?
A: CC50 at 24 h [1, 3]: 16 µM; IC50 (secreted PCSK9; [5]): 5.4 ± 2.65 µM; inhibition at 0.5 µM (secreted PCSK9; Homo sapiens, 0.5 μM, HepG2, 24 h, read-out: secreted PCSK9 change vs. basal): 80%; inhibition at 5 µM (secreted PCSK9; [4]): 55%

Q: Which “secreted PCSK9 change vs. unstimulated cells” value (secreted PCSK9; 20 μM, HepG2, 24 h) does the source give for `CCC(C)(C)C(=O)O[C@H]1C[C@@H](C)C=C2C=C[C@H](C)[C@H](CC[C@@H]3C[C@@H](O)CC(=O)O3)[C@H]21` [simvastatin, reference compound] here?
A: +73%

Q: What about the “secreted PCSK9 change vs. unstimulated cells” value (secreted PCSK9; 40 μM, HepG2, 24 h) of the same molecule?
A: +200%

Q: With `Cc1cc2c(c(=O)n1Cc1ccc(C(F)(F)F)cc1)CCC(=O)N2Cc1ccc(C(F)(F)F)cc1` [Compound 11, 7‐Methyl‐1,6‐Bis(4‐(Trifluoromethyl)Benzyl)‐4,6‐Dihydro‐1,6‐Naphthyridine‐2,5(1H,3H)‐Dione] as the molecule, how does the CC50 at 24 h [1, 3] read?
A: 28 µM

Q: And the “effect on PCSK9 secretion (in words)” value (secreted PCSK9; [6])?
A: moderate but significant inhibition of PCSK9 secretion

Q: What about the IC50 (secreted PCSK9; [5]) of the same molecule?
A: 10.2 ± 2.81 µM

Q: And the “metabolic stability (in words)” value [2]?
A: modest yet notable improvement in stability

Q: Which results are given for `CC(=O)N(Cc1ccc(C(F)(F)F)cc1)c1cc(C)n(Cc2ccc(C(F)(F)F)cc2)c(=O)c1` [Compound 12, N‐(6‐Methyl‐2‐Oxo‐1‐(4‐(Trifluoromethyl)Benzyl)‐1,2‐Dihydropyridin‐4‐yl)‐N‐(4‐(Trifluoromethyl)Benzyl)Acetamide]?
A: CC50 at 24 h [1, 3]: 43 µM; effect on PCSK9 secretion (in words) (secreted PCSK9; [6]): did not inhibit PCSK9 in a dose‐dependent manner; IC50 (secreted PCSK9; [5]): 13.6 ± 2.67 µM; inhibition at 25 µM (secreted PCSK9; [4]): 75%; metabolic stability, percentage of intact compound recovered relative to control [2]: exceeding 95%

Q: Which CC50 at 24 h [1, 7] does the source give for `CC(=O)N(Cc1ccc(C(F)(F)F)cc1)c1cc(C)n(Cc2ccc(C(F)(F)F)cc2)c(=O)c1Br` [Compound 15, N‐(3‐Bromo‐6‐Methyl‐2‐Oxo‐1‐(4‐(Trifluoromethyl)Benzyl)‐1,2‐Dihydropyridin‐4‐yl)‐N‐(4‐(Trifluoromethyl)Benzyl)Acetamide] here?
A: > 50 µM

Q: And the “effect on PCSK9 secretion (in words)” value (secreted PCSK9; [6])?
A: did not inhibit PCSK9 in a dose‐dependent manner

Q: What about the inhibition at 25 µM (secreted PCSK9; [4]) of the same molecule?
A: 80%

Q: What about the “metabolic stability (in words)” value [2] of the same molecule?
A: did not result in improved stability over the single‐site modifications in 12 or 6b

Q: For `CO/C(=N\c1cc(C)n(Cc2ccc(C(F)(F)F)cc2)c(=O)c1)c1ccc(C(F)(F)F)cc1` [Compound 8, Methyl (Z)‐N‐(6‐Methyl‐2‐Oxo‐1‐(4‐(Trifluoromethyl)Benzyl)‐1,2‐Dihydropyridin‐4‐yl)‐4‐(Trifluoromethyl)Benzimidate], which CC50 at 24 h [1, 3] is on record?
A: 30.2 µM

Q: What about the CC50 at 24 h [1, 7] of the same molecule?
A: 43.1 µM

Q: And the “decrease of secreted PCSK9 vs. basal” value (secreted PCSK9; 10 μM, HepG2, 24 h)?
A: 50%

Q: And the IC50 (secreted PCSK9; [5])?
A: 7.2 ± 0.51 µM

Q: And the “metabolic stability (in words)” value [2]?
A: entirely metabolized

Q: For `Cc1cc(N(Cc2ccc(C(F)(F)F)cc2)C(=O)CCl)cc(=O)n1Cc1ccc(C(F)(F)F)cc1` [Compound 14, 2‐Chloro‐N‐(6‐Methyl‐2‐Oxo‐1‐(4‐(Trifluoromethyl)Benzyl)‐1,2‐Dihydropyridin‐4‐yl)‐N‐(4‐(Trifluoromethyl)Benzyl)Acetamide], which CC50 at 24 h [1, 3] is on record?
A: 15 µM

Q: And the “effect on PCSK9 secretion (in words)” value (secreted PCSK9; [6])?
A: a bit less effective than 8 at the highest concentration used

Q: And the IC50 (secreted PCSK9; [5])?
A: 6.4 ± 0.37 µM

Q: And the “metabolic stability, percentage of intact compound recovered relative to control” value [2]?
A: exceeding 95%

Q: For `COc1ccc2cc3[n+](cc2c1OC)CCc1cc2c(cc1-3)OCO2` [BBR, berberine, reference compound], which CC50 at 24 h [1, 7] is on record?
A: 25 µM

Q: What about the “decrease of secreted PCSK9 vs. basal” value (secreted PCSK9; 10 μM, HepG2, 24 h) of the same molecule?
A: more than 50%

Q: And the inhibition at 10 µM (secreted PCSK9; Homo sapiens, 10 μM, HepG2, 24 h, read-out: secreted PCSK9 change vs. basal)?
A: 52%

Q: What about the IC50 (secreted PCSK9; Homo sapiens, HepG2, 24 h, ELISA on supernatants, normalized to viability, Figures 5 and 8 and text, read-out: IC50 (anti-PCSK9 activity, PCSK9 secretion)) of the same molecule?
A: 10 µM

Q: With `Cc1cc2c(c(=O)n1Cc1ccc(C(F)(F)F)cc1)CN(C(C)C)CN2Cc1ccc(C(F)(F)F)cc1` [Compound 10, 3‐Isopropyl‐7‐Methyl‐1,6‐Bis(4‐(Trifluoromethyl)Benzyl)‐2,3,4,6‐Tetrahydropyrido[4,3‐d]pyrimidin‐5(1H)‐One] as the molecule, how does the CC50 at 24 h [1, 3] read?
A: 21.9 µM

Q: What about the “metabolic stability (in words)” value [2] of the same molecule?
A: less stable
